In patent publication US9073881B2, “Benzoic acid derivatives” (HOFFMANN-LA ROCHE INC., priority 2011, dated 2015):

Target: Human eIF4E (Homo sapiens (Human), UniProt P06730)
Experiment: Human eIF4E/4G binding assay (time-resolved fluorescence, HH-eIF4E and biotin-labeled 4G2 peptide)
Conditions: inhibition of binding of His-tagged human eIF4E (aa 28-217) to biotin-labeled 4G2 peptide
Experimental: The protein was solubilized with 8 M urea and purified under denaturing conditions using nickel-charged HisTrap HP columns (GE Healthcare). The protein was refolded by diluting to approximately 0.25 mg/mL with 6 M urea, 20 mM Hepes pH 7.0, 500 mM NaCl, 1 mM DTT, 1 mM EDTA, and 0.5 M arginine.HCl, and then dialyzing overnight into the same buffer without the urea. The protein was further dialyzed into 20 mM Hepes pH 6.5, 50 mM NaCl, 1 mM EDTA, and 1 mM DTT, filtered, and then concentrated using Hitrap SP sepharose FF columns (GE Healthcare). The protein was dialyzed into 20 mM Hepes pH 7.0, 500 mM NaCl, 5 mM DTT, and 10% glycerol and stored at −80° C. until use. Test compounds (1.6 mM stock in DMSO) were diluted 3 fold in series in DMSO. Compound solutions were diluted 4 fold in Assay Buffer (50 mM sodium phosphate, pH 6.5, 50 mM KCl, 1 mM DTT and 0.5 mg/mL gammaglobulin). […] The samples were incubated at room temperature for 20 minutes. […] IC50 values were calculated using Condoseo software (Genedata AG).

Human eIF4E, sequence (P06730 28-217): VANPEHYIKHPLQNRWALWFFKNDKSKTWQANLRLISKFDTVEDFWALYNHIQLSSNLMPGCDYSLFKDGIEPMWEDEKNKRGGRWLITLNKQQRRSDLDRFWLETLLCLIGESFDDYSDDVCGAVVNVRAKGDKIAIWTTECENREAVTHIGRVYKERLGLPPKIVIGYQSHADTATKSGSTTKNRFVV

Row | IC50 [nM] | Structure (SMILES)
1 | 3600 | CCOc1ncc(-c2ccc(-c3nc(-c4ccc(Cl)c(Cl)c4)cs3)cc2C(=O)O)cn1 [Example 82, 5-[4-(3,4-Dichloro-phenyl)-thiazol-2-yl]-2-(2-ethoxy-pyrimidin-5-yl)-benzoic acid]
2 | 5500 | O=Cc1ccccc1-c1ccc(-c2nc(-c3ccc(Cl)c(Cl)c3)cs2)cc1C(=O)O [Example 123, 4-[4-(3,4-Dichloro-phenyl)-thiazol-2-yl]-2′-formyl-biphenyl-2-carboxylic acid]
3 | 600 | O=C(O)c1cc(-c2nc(-c3ccc(Cl)c(Cl)c3)cs2)ccc1-c1cc(OC(F)(F)F)ccc1Cl [Example 88, 2′-Chloro-4-[4-(3,4-dichloro-phenyl)-thiazol-2-yl]-5′-trifluoromethoxy-biphenyl-2-carboxylic acid]
4 | 2000 | COc1ccc(CNC(=O)c2ccc(-c3ccc(-c4nc(-c5ccc(Cl)c(Cl)c5)cs4)cc3C(=O)O)cc2)cc1 [Example 64, 4-[4-(3,4-Dichloro-phenyl)-thiazol-2-yl]-4′-(4-methoxy-benzylcarbamoyl)-biphenyl-2-carboxylic acid]
5 | 8900 | O=C(NCC1CCOCC1)c1ccc(-c2ccc(-c3nc(-c4ccc(Cl)c(Cl)c4)cs3)cc2C(=O)O)cc1 [Example 60, 4-[4-(3,4-Dichloro-phenyl)-thiazol-2-yl]-4′-[(tetrahydro-pyran-4-ylmethyl)-carbamoyl]-biphenyl-2-carboxylic acid]
6 | 4000 | O=C(O)c1cc(-c2nc(-c3ccc(Br)cc3)cs2)ccc1-c1ccccc1[N+](=O)[O-] [Example 27, 4-[4-(4-Bromo-phenyl)-thiazol-2-yl]-2′-nitro-biphenyl-2-carboxylic acid]
7 | 1600 | Cc1ccc(F)c(-c2ccc(-c3nc(-c4ccc(Cl)c(Cl)c4)cs3)cc2C(=O)O)c1Cl [Example 139, 2′-Chloro-4-[4-(3,4-dichloro-phenyl)-thiazol-2-yl]-6′-fluoro-3′-methyl-biphenyl-2-carboxylic acid]
8 | 1700 | O=C(O)c1cc(-c2nc(-c3ccc(Cl)c(Cl)c3)cs2)ccc1-c1ccc(Cl)cc1 [Example 147, 4′-Chloro-4-[4-(3,4-dichloro-phenyl)-thiazol-2-yl]-biphenyl-2-carboxylic acid]
9 | 4200 | Cc1ccc(-c2csc(-c3ccc(-c4ccccc4[N+](=O)[O-])c(C(=O)O)c3)n2)c(C)c1 [Example 40, 4-[4-(2,4-Dimethyl-phenyl)-thiazol-2-yl]-2′-nitro-biphenyl-2-carboxylic acid]
10 | 2900 | O=C(NCCc1ccccc1)c1ccc(-c2ccc(-c3nc(-c4ccc(Cl)c(Cl)c4)cs3)cc2C(=O)O)cc1 [Example 67, 4-[4-(3,4-Dichloro-phenyl)-thiazol-2-yl]-4′-phenethylcarbamoyl-biphenyl-2-carboxylic acid]
11 | 3000 | O=C(O)c1cc(-c2nc(-c3ccc(Cl)c(Cl)c3)cs2)ccc1-c1ccc(F)cn1 [Example 100, 5-[4-(3,4-Dichloro-phenyl)-thiazol-2-yl]-2-(5-fluoro-pyridin-2-yl)-benzoic acid]
12 | 1600 | O=C(O)c1cc(-c2nc(-c3ccc(Cl)c(Cl)c3)cs2)ccc1-c1ccc(C(F)(F)F)cc1Cl [Example 127, 2′-Chloro-4-[4-(3,4-dichloro-phenyl)-thiazol-2-yl]-4′-trifluoromethyl-biphenyl-2-carboxylic acid]
13 | 6100 | O=C(O)c1ccc(-c2ccc(-c3nc(-c4ccc(Cl)c(Cl)c4)cs3)cc2C(=O)O)c(F)c1 [Example 121, 4-[4-(3,4-Dichloro-phenyl)-thiazol-2-yl]-2′-fluoro-biphenyl-2,4′-dicarboxylic acid]
14 | 5700 | O=C(NC1CCOCC1)c1ccc(-c2ccc(-c3nc(-c4ccc(Cl)c(Cl)c4)cs3)cc2C(=O)O)cc1 [Example 63, 4-[4-(3,4-Dichloro-phenyl)-thiazol-2-yl]-4′-(tetrahydro-pyran-4-ylcarbamoyl)-biphenyl-2-carboxylic acid]
15 | 1200 | O=C(O)c1cc(-c2nc(-c3ccc(Cl)c(Cl)c3)cs2)ccc1-c1cnc(O)nc1 [Example 84, 5-[4-(3,4-Dichloro-phenyl)-thiazol-2-yl]-2-(2-hydroxy-pyrimidin-5-yl)-benzoic acid]
16 | 2000 | O=C(O)c1cc(-c2nc(-c3ccc(Cl)c(Cl)c3)cs2)ccc1-c1cc(C(F)(F)F)ccc1[N+](=O)[O-] [Example 4, 4-[4-(3,4-Dichloro-phenyl)-thiazol-2-yl]-2′-nitro-5′-trifluoromethyl-biphenyl-2-carboxylic acid]
17 | 2500 | O=C(NCc1ccccc1F)c1ccc(-c2ccc(-c3nc(-c4ccc(Cl)c(Cl)c4)cs3)cc2C(=O)O)cc1 [Example 74, 4-[4-(3,4-Dichloro-phenyl)-thiazol-2-yl]-4′-(2-fluoro-benzylcarbamoyl)-biphenyl-2-carboxylic acid]
18 | 2900 | O=C(O)c1cc(-c2nc(-c3cc(Cl)ccc3Cl)cs2)ccc1-c1ccccc1[N+](=O)[O-] [Example 12, 4-[4-(2,5-Dichloro-phenyl)-thiazol-2-yl]-2′-nitro-biphenyl-2-carboxylic acid]
19 | 500 | O=C(O)c1cc(-c2nc(-c3ccc(Cl)c(Cl)c3)cs2)ccc1-c1ccccc1[N+](=O)[O-] [Example 16, 4-[4-(3,4-Dichloro-phenyl)-thiazol-2-yl]-2′-nitro-biphenyl-2-carboxylic acid]
20 | 2400 | O=C(O)c1cc(-c2nc(-c3ccc(C(F)(F)F)cc3)cs2)ccc1-c1ccccc1[N+](=O)[O-] [Example 7, 2′-Nitro-4-[4-(4-trifluoromethyl-phenyl)-thiazol-2-yl]-biphenyl-2-carboxylic acid]
21 | 1300 | Cc1cc(C#N)ccc1-c1ccc(-c2nc(-c3ccc(Cl)c(Cl)c3)cs2)cc1C(=O)O [Example 105, 4′-Cyano-4-[4-(3,4-dichloro-phenyl)-thiazol-2-yl]-2′-methyl-biphenyl-2-carboxylic acid]
22 | 1300 | COc1ccc(-c2ccc(-c3nc(-c4ccc(Cl)c(Cl)c4)cs3)cc2C(=O)O)c(C(F)(F)F)c1 [Example 87, 4-[4-(3,4-Dichloro-phenyl)-thiazol-2-yl]-4′-methoxy-2′-trifluoromethyl-biphenyl-2-carboxylic acid]
23 | 3700 | NC(=O)c1ccc(Cl)c(-c2ccc(-c3nc(-c4ccc(Cl)c(Cl)c4)cs3)cc2C(=O)O)c1 [Example 109, 5′-Carbamoyl-2′-chloro-4-[4-(3,4-dichloro-phenyl)-thiazol-2-yl]-biphenyl-2-carboxylic acid]
24 | 7700 | CC(=O)c1ccccc1-c1ccc(-c2nc(-c3ccc(Cl)c(Cl)c3)cs2)cc1C(=O)O [Example 117, 2′-Acetyl-4-[4-(3,4-dichloro-phenyl)-thiazol-2-yl]-biphenyl-2-carboxylic acid]
25 | 4100 | O=C(O)c1cc(-c2nc(-c3ccc(Cl)c(Cl)c3)cs2)ccc1-c1ccc([N+](=O)[O-])cc1 [Example 45, 4-[4-(3,4-Dichloro-phenyl)-thiazol-2-yl]-4′-nitro-biphenyl-2-carboxylic acid]
26 | 2100 | O=C(NCc1cccc(F)c1)c1ccc(-c2ccc(-c3nc(-c4ccc(Cl)c(Cl)c4)cs3)cc2C(=O)O)cc1 [Example 73, 4-[4-(3,4-Dichloro-phenyl)-thiazol-2-yl]-4′-(3-fluoro-benzylcarbamoyl)-biphenyl-2-carboxylic acid]
27 | > 80000 | CN(C)CCNC(=O)c1ccc(-c2ccc(-c3nc(-c4ccc(Cl)c(Cl)c4)cs3)cc2C(=O)O)cc1 [Example 49, 4-[4-(3,4-Dichloro-phenyl)-thiazol-2-yl]-4′-(2-dimethylamino-ethylcarbamoyl)-biphenyl-2-carboxylic acid]
